Assay results taken from ChEMBL document CHEMBL3638675, “Alkoxy pyrimidine PDE10 inhibitors” (2014).

Biological target: cAMP and cAMP-inhibited cGMP 3',5'-cyclic phosphodiesterase 10A (Homo sapiens, UniProt Q9Y233)
Test: Fluorescence Polarization Assay: The activity of the compounds in accordance with the present invention as PDE10 inhibitors may be readily determined without undue experimentation using a fluorescence polarization (FP) methodology that is well known in the art (Huang, W., et al., J. Biomol Screen, 2002, 7: 215). […] In a typical experiment the PDE10 inhibitory activity of the compounds of the present invention was determined in accordance with the following experimental method. PDE10A2 was amplified from human fetal brain cDNA (Clontech, Mountain View, Calif.) using a forward primer corresponding to nucleotides 56-77 of human PDE10A2 (Accession No. AF127480, Genbank Identifier 4894716), containing a Kozak consensus sequence, and a reverse primer corresponding to nucleotides 2406-2413 of human PDE10A2.

Chain of cAMP and cAMP-inhibited cGMP 3',5'-cyclic phosphodiesterase 10A (Q9Y233 whole entry): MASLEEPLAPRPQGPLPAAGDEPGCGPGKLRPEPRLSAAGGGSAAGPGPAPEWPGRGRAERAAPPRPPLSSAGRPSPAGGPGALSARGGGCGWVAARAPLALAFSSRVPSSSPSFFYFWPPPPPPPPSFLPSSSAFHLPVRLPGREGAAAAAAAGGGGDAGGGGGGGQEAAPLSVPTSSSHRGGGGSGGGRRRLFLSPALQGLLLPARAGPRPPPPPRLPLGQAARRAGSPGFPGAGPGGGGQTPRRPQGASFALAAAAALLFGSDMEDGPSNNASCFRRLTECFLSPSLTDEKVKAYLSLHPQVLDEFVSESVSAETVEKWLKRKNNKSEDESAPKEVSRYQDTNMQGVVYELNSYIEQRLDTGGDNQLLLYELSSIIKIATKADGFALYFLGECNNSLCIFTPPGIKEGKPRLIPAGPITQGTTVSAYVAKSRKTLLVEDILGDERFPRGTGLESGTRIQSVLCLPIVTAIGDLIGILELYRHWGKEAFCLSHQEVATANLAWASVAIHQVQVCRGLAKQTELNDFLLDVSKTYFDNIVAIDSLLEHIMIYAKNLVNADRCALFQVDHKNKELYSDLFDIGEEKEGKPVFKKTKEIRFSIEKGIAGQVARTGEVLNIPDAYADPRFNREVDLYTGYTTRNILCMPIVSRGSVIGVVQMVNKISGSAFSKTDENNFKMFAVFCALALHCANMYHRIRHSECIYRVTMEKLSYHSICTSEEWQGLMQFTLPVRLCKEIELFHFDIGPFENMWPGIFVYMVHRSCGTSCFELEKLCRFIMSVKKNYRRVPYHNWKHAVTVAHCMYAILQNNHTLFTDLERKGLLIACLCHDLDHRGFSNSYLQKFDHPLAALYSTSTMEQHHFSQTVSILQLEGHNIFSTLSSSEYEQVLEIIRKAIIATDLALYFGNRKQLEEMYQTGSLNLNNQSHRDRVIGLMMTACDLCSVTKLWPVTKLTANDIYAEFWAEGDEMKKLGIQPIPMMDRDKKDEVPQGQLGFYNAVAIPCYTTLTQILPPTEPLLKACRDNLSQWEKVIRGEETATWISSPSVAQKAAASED

Ki [nM] | Structure (SMILES)
0.019 | Cc1c(Cl)nc(OC[C@@H]2C[C@H]2c2ccc3ncccc3n2)nc1NCc1cnn(C)c1
0.17 | COc1nc(OC[C@H]2C[C@@H]2c2ccc3ncccc3n2)nc(NCc2cnn(C)c2)c1C
0.0006 | Cc1nc(C)c(CNc2nc(OC[C@@H]3C[C@H]3c3ccc4ccccc4n3)nc(Cl)c2C)s1
